Results from patent US5488060A, “Substituted thiadiazoles, compositions containing them and their use as antimicrobial and marine antifouling agents” (The Dow Chemical Company, priority 1994, dated 1996).
Values after ≈ are worked out from the molar mass of the structure shown. Where two headings read alike, the source gives them in different places.

How the values were obtained:
Type in all cases: cell-based
Candida albicans (Ca) = assay: Minimum inhibitory concentration (MIC) in malt yeast agar, Candida albicans
How it was run: (§1)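 Growth is scored at 30 °C after 72 h for fungi and 48 h for yeast on malt yeast agar (pH 5.5) containing compound at final levels from 500 down to zero ppm. Organisms are grown 7 days at 30 °C, suspended in saline with octylphenoxy polyethoxy ethanol, and diluted 1:9 before replicator inoculation.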

[1] = test system: Pseudomonas aeruginosa (PRD-10); assay: Minimum inhibitory concentration (MIC) in nutrient agar, Pseudomonas aeruginosa PRD-10
How it was run: (§2)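 MIC is determined by agar incorporation into neutral and alkaline nutrient agar, with compound at final 500 to 1.0 ppm added from a 1% acetone–water solution. Plates are inoculated with 10^8 CFU/mL cultures and read after 48 h at 30° C.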

[2] = test system: Aureobasidium pullulan (Ap); assay: Minimum inhibitory concentration (MIC) in malt yeast agar, Aureobasidium pullulan
How it was run: as §1

[3] = test system: Pseudomonas aeruginosa (Pa); assay: Minimum inhibitory concentration (MIC) in nutrient agar, Pseudomonas aeruginosa; details: 30° C., 48 hours, read-out: Minimum Inhibitory Concentration, Pa
How it was run: as §2

[4] = test system: Staphylococcus aureus (Sa); assay: Minimum inhibitory concentration (MIC) in nutrient agar, Staphylococcus aureus
How it was run: as §2

Proteus vulgaris (Pv) = assay: Minimum inhibitory concentration (MIC) in nutrient agar, Proteus vulgaris
How it was run: as §2

Escherichia coli (Ec) = assay: Minimum inhibitory concentration (MIC) in nutrient agar, Escherichia coli
How it was run: as §2

Fusarium oxysporum (Fo) = assay: Minimum inhibitory concentration (MIC) in malt yeast agar, Fusarium oxysporum
How it was run: as §1

[5] = test system: Penicillium chrysogenum (Pc); assay: Minimum inhibitory concentration (MIC) in malt yeast agar, Penicillium chrysogenum
How it was run: as §1

[6] = test system: Enterobacter aerogenes (Ea); assay: Minimum inhibitory concentration (MIC) in nutrient agar, Enterobacter aerogenes; details: Klebsiella aerogenes
How it was run: as §2

[7] = test system: Saccharomyces cerevisiae (Sc); assay: Minimum inhibitory concentration (MIC) in malt yeast agar, Saccharomyces cerevisiae; details: pH 5.5, malt yeast agar, 30° C., 48 hours for yeast, read-out: Minimum Inhibitory Concentration, SC
How it was run: as §1

[8] = test system: Klebsiella pneumoniae (Kp); assay: Minimum inhibitory concentration (MIC) in nutrient agar, Klebsiella pneumoniae
How it was run: as §2

Aspergillus niger (An) = assay: Minimum inhibitory concentration (MIC) in malt yeast agar, Aspergillus niger
How it was run: as §1

Bacillus subtilis (Bs) = assay: Minimum inhibitory concentration (MIC) in nutrient agar, Bacillus subtilis
How it was run: as §2

[9] = test system: Salmonella choleraesuis (Se); assay: Minimum inhibitory concentration (MIC) in nutrient agar, Salmonella choleraesuis; details: Salmonella enterica
How it was run: as §2

Trichoderma viride (Tv) = assay: Minimum inhibitory concentration (MIC) in malt yeast agar, Trichoderma viride
How it was run: as §1

[10] = pH 5.5, malt yeast agar, 30° C., 48 hours for yeast, read-out: Minimum Inhibitory Concentration, Ca
[11] = 48 h, pH 6.8, read-out: Minimum Inhibitory Concentration, PRD
[12] = 48 h, pH 8.2, read-out: Minimum Inhibitory Concentration, PRD
[13] = 48 h, pH 8.2, read-out: Minimum Inhibitory Concentration, Sa
[14] = pH 6.8, nutrient agar, 30° C., 48 hours, read-out: Minimum Inhibitory Concentration, Sa
[15] = 48 h, pH 6.8, read-out: Minimum Inhibitory Concentration, Pv
[16] = 48 h, pH 8.2, read-out: Minimum Inhibitory Concentration, Pv
[17] = 48 h, pH 6.8, read-out: Minimum Inhibitory Concentration, Ec
[18] = 48 h, pH 8.2, read-out: Minimum Inhibitory Concentration, Ec
[19] = pH 5.5, malt yeast agar, 30° C., 72 hours for fungi, read-out: Minimum Inhibitory Concentration, Fo
[20] = pH 5.5, malt yeast agar, 30° C., 72 hours for fungi, read-out: Minimum Inhibitory Concentration, PC
[21] = 48 h, pH 6.8, read-out: Minimum Inhibitory Concentration, Ea
[22] = 48 h, pH 8.2, read-out: Minimum Inhibitory Concentration, Ea
[23] = 48 h, pH 8.2, read-out: Minimum Inhibitory Concentration, Kp
[24] = pH 6.8, nutrient agar, 30° C., 48 hours, read-out: Minimum Inhibitory Concentration, Kp
[25] = 72 h, pH 5.5, read-out: Minimum Inhibitory Concentration, An
[26] = 48 h, pH 8.2, read-out: Minimum Inhibitory Concentration, Bs
[27] = 48 h, pH 6.8, read-out: Minimum Inhibitory Concentration, SC
[28] = 48 h, pH 8.2, read-out: Minimum Inhibitory Concentration, SC
[29] = pH 5.5, malt yeast agar, 30° C., 72 hours for fungi, read-out: Minimum Inhibitory Concentration, Tv
[30] = pH 5.5, malt yeast agar, 30° C., read-out: Minimum Inhibitory Concentration, Ap
[31] = pH 6.8, nutrient agar, 30° C., 48 hours, read-out: Minimum Inhibitory Concentration, Bs
[32] = 72 h, pH 5.5, read-out: Minimum Inhibitory Concentration, Tv

CS(=O)(=O)c1ccc(-c2nsnc2SCSC#N)cc1 [Example XXV, 4-(4-Methylsulfonylphenyl)-3-thiocyanatomethylthio-1,2,5-thiadiazole] gave an MIC (Candida albicans (Ca); [10]) of 500 µg/mL (≈ 1460 µM), an MIC [1, 11] of 500 µg/mL (≈ 1460 µM) and an MIC [1, 12] of over 500 µg/mL. For the same compound, the MIC ([2]; pH 5.5, read-out: Minimum Inhibitory Concentration, Ap) was 250 µg/mL (≈ 728 µM), the MIC ([3]; pH 6.8, nutrient agar) was 500 µg/mL (≈ 1460 µM) and the MIC ([3]; pH 8.2, nutrient agar) was over 500 µg/mL. It also gave an MIC [4, 13] of 500 µg/mL (≈ 1460 µM), an MIC [4, 14] of 500 µg/mL (≈ 1460 µM) and an MIC (Proteus vulgaris (Pv); [15]) of 500 µg/mL (≈ 1460 µM). The MIC (Proteus vulgaris (Pv); [16]) was over 500 µg/mL, the MIC (Escherichia coli (Ec); [17]) was 500 µg/mL (≈ 1460 µM) and the MIC (Escherichia coli (Ec); [18]) was 500 µg/mL (≈ 1460 µM). For the same compound, the MIC (Fusarium oxysporum (Fo); [19]) was over 500 µg/mL, the MIC [5, 20] was 9 µg/mL (≈ 26.2 µM) and the MIC [6, 21] was 500 µg/mL (≈ 1460 µM). For the same compound, the MIC [6, 22] was over 500 µg/mL, the MIC [7] was 500 µg/mL (≈ 1460 µM) and the MIC [8, 23] was over 500 µg/mL. It also gave an MIC [8, 24] of 500 µg/mL (≈ 1460 µM), an MIC (Aspergillus niger (An); [25]) of 250 µg/mL (≈ 728 µM) and an MIC (Bacillus subtilis (Bs); 48 h, pH 6.8, read-out: Minimum Inhibitory Concentration, Bs) of 500 µg/mL (≈ 1460 µM). The MIC (Bacillus subtilis (Bs); [26]) was 500 µg/mL (≈ 1460 µM), the MIC [9, 27] was 500 µg/mL (≈ 1460 µM) and the MIC [9, 28] was over 500 µg/mL. The MIC (Trichoderma viride (Tv); [29]) was over 500 µg/mL.
For N#CSCSc1nsnc1-c1ccc(Br)cc1 [Example XVII, 4-(4-Bromophenyl)-3-thiocyanatomethylthio-1,2,5-thiadiazole], the MIC (Candida albicans (Ca); [10]) was 500 µg/mL (≈ 1450 µM), the MIC [1, 11] was over 500 µg/mL and the MIC [1, 12] was over 500 µg/mL. The MIC [2, 30] was 9 µg/mL (≈ 26.1 µM), the MIC ([3]; pH 6.8, nutrient agar) was over 500 µg/mL and the MIC ([3]; pH 8.2, nutrient agar) was over 500 µg/mL. The MIC [4, 13] was over 500 µg/mL, the MIC [4, 14] was over 500 µg/mL and the MIC (Proteus vulgaris (Pv); [15]) was over 500 µg/mL. The MIC (Proteus vulgaris (Pv); [16]) was over 500 µg/mL, the MIC (Escherichia coli (Ec); [17]) was over 500 µg/mL and the MIC (Escherichia coli (Ec); [18]) was over 500 µg/mL. It also gave an MIC (Fusarium oxysporum (Fo); [19]) of 250 µg/mL (≈ 726 µM), an MIC [5, 20] of 9 µg/mL (≈ 26.1 µM) and an MIC [6, 21] of over 500 µg/mL. It also gave an MIC [6, 22] of over 500 µg/mL, an MIC [7] of 9 µg/mL (≈ 26.1 µM) and an MIC [8, 23] of over 500 µg/mL. It also gave an MIC [8, 24] of over 500 µg/mL, an MIC (Aspergillus niger (An); [25]) of 25 µg/mL (≈ 72.6 µM) and an MIC (Bacillus subtilis (Bs); [26]) of 25 µg/mL (≈ 72.6 µM). For the same compound, the MIC (Bacillus subtilis (Bs); [31]) was 9 µg/mL (≈ 26.1 µM), the MIC [9, 27] was over 500 µg/mL and the MIC [9, 28] was over 500 µg/mL. For the same compound, the MIC (Trichoderma viride (Tv); [29]) was 500 µg/mL (≈ 1450 µM).
With COc1cccc(-c2nsnc2SCSC#N)c1 [Example XXII, 4-(3-Methoxyphenyl)-3-thiocyanatomethylthio-1,2,5-thiadiazole] the MIC (Candida albicans (Ca); 48 h, pH 5.5, read-out: Minimum Inhibitory Concentration, Ca) was 250 µg/mL (≈ 846 µM), the MIC [1, 11] was 500 µg/mL (≈ 1690 µM) and the MIC [1, 12] was over 500 µg/mL. It also gave an MIC [2, 30] of 9 µg/mL (≈ 30.5 µM), an MIC ([3]; pH 6.8, nutrient agar) of 500 µg/mL (≈ 1690 µM) and an MIC ([3]; pH 8.2, nutrient agar) of over 500 µg/mL. The MIC [4, 13] was 500 µg/mL (≈ 1690 µM), the MIC [4, 14] was 500 µg/mL (≈ 1690 µM) and the MIC (Proteus vulgaris (Pv); [15]) was 500 µg/mL (≈ 1690 µM). The MIC (Proteus vulgaris (Pv); [16]) was over 500 µg/mL, the MIC (Escherichia coli (Ec); [17]) was 500 µg/mL (≈ 1690 µM) and the MIC (Escherichia coli (Ec); [18]) was 500 µg/mL (≈ 1690 µM). For the same compound, the MIC (Fusarium oxysporum (Fo); 72 h, pH 5.5, read-out: Minimum Inhibitory Concentration, Fo) was 50 µg/mL (≈ 169 µM), the MIC [5, 20] was 25 µg/mL (≈ 84.6 µM) and the MIC [6, 21] was 500 µg/mL (≈ 1690 µM). The MIC [6, 22] was over 500 µg/mL, the MIC [7] was 9 µg/mL (≈ 30.5 µM) and the MIC [8, 23] was over 500 µg/mL. The MIC [8, 24] was 500 µg/mL (≈ 1690 µM), the MIC (Aspergillus niger (An); [25]) was 50 µg/mL (≈ 169 µM) and the MIC (Bacillus subtilis (Bs); [26]) was 25 µg/mL (≈ 84.6 µM). It also gave an MIC (Bacillus subtilis (Bs); [31]) of 9 µg/mL (≈ 30.5 µM), an MIC [9, 27] of 500 µg/mL (≈ 1690 µM) and an MIC [9, 28] of over 500 µg/mL. It also gave an MIC (Trichoderma viride (Tv); [32]) of 250 µg/mL (≈ 846 µM).
For N#CSc1nsnc1-c1ccc([N+](=O)[O-])cc1 [Example XIII, 4-(4-nitrophenyl)-3-thiocyanato-1,2,5-thiadiazole], the MIC (Candida albicans (Ca); [10]) was under 10 µg/mL, the MIC [1, 11] was 500 µg/mL (≈ 1890 µM) and the MIC ([1]; pH 8.2, nutrient agar, 30° C., 48 hours, read-out: Minimum Inhibitory Concentration, PRD) was over 100 µg/mL. The MIC [2, 30] was under 10 µg/mL, the MIC ([3]; pH 6.8, nutrient agar) was 500 µg/mL (≈ 1890 µM) and the MIC ([3]; pH 8.2, nutrient agar) was over 100 µg/mL. For the same compound, the MIC ([4]; 48 h, pH 6.8, read-out: Minimum Inhibitory Concentration, Sa) was 50 µg/mL (≈ 189 µM), the MIC ([4]; pH 8.2, nutrient agar, 30° C., 48 hours, read-out: Minimum Inhibitory Concentration, Sa) was over 100 µg/mL and the MIC (Proteus vulgaris (Pv); [15]) was 500 µg/mL (≈ 1890 µM). The MIC (Proteus vulgaris (Pv); pH 8.2, nutrient agar, 30° C., 48 hours, read-out: Minimum Inhibitory Concentration, Pv) was over 100 µg/mL, the MIC (Escherichia coli (Ec); [17]) was 500 µg/mL (≈ 1890 µM) and the MIC (Escherichia coli (Ec); pH 8.2, nutrient agar, 30° C., 48 hours, read-out: Minimum Inhibitory Concentration, Ec) was over 100 µg/mL. The MIC (Fusarium oxysporum (Fo); [19]) was under 10 µg/mL, the MIC ([5]; 72 h, pH 5.5, read-out: Minimum Inhibitory Concentration, PC) was under 10 µg/mL and the MIC [6, 21] was 500 µg/mL (≈ 1890 µM). For the same compound, the MIC ([6]; pH 8.2, nutrient agar, 30° C., 48 hours, read-out: Minimum Inhibitory Concentration, Ea) was over 100 µg/mL, the MIC [7] was under 10 µg/mL and the MIC [8, 24] was 100 µg/mL (≈ 378 µM). The MIC ([8]; pH 8.2, nutrient agar, 30° C., 48 hours, read-out: Minimum Inhibitory Concentration, Kp) was over 100 µg/mL, the MIC (Aspergillus niger (An); pH 5.5, malt yeast agar, 30° C., 72 hours for fungi, read-out: Minimum Inhibitory Concentration, An) was under 10 µg/mL and the MIC (Bacillus subtilis (Bs); [31]) was 25 µg/mL (≈ 94.6 µM). The MIC (Bacillus subtilis (Bs); pH 8.2, nutrient agar, 30° C., 48 hours, read-out: Minimum Inhibitory Concentration, Bs) was over 100 µg/mL, the MIC [9, 27] was 500 µg/mL (≈ 1890 µM) and the MIC ([9]; pH 8.2, nutrient agar, 30° C., 48 hours, read-out: Minimum Inhibitory Concentration, SC) was over 100 µg/mL. It also gave an MIC (Trichoderma viride (Tv); [32]) of under 10 µg/mL.
